ChEMBL document CHEMBL1130455, “Synthesis and antirheumatic activity of novel tetrahydro-6-quinolineacetic acid derivatives” (1997)

Experiments:
Format in all cases: functional
Mus musculus [1] = experiment: Inhibitory effect on vascular permeability in mice [inhibitory rate of compound 100 mg/kg administered perorally]/[inhibitory rate of diclofenac-Na 25 mg/kg administered perorally]
Ovis aries = organism: Ovis aries; experiment: In vitro inhibitory effect of anti-sheep erythrocyte IgM antibody-producing cells, (value is obtained by the number of IgM-PFC in the tested group and that in the control) at a concentration of 2*10e-6M
Rattus norvegicus [2] = experiment: Inhibitory effect on adjuvant arthritis in rats at a dose of 12.5 mg/kg, (the value is obtained by comparison between the non-injected paw volumes of the arthritic and control)
Rattus norvegicus [3] = experiment: Inhibitory effect on adjuvant arthritis in rats at a dose of 25 mg/kg, (the value is obtained by comparison between the non-injected paw volumes of the arthritic and control).
Rattus norvegicus [4] = experiment: Inhibitory effect on adjuvant arthritis in rats at a dose of 50 mg/kg (the value is obtained by comparison between the non-injected paw volumes of the arthritic and control)
Rattus norvegicus [5] = experiment: Inhibitory effect on adjuvant arthritis in rats at a dose of 100 mg/kg (the value is obtained by comparison between the non-injected paw volumes of the arthritic and control)
Rattus norvegicus [6] = experiment: Inhibitory effect on adjuvant arthritis in rats at a dose of 25 mg/kg (the value is obtained by comparison between the non-injected paw volumes of the arthritic and control)
Rattus norvegicus [7] = experiment: Inhibitory effect on adjuvant arthritis in rats at a dose of 12.5 mg/kg (the value is obtained by comparison between the non-injected paw volumes of the arthritic and control).
Rattus norvegicus [8] = experiment: Inhibitory effect on adjuvant arthritis in rats at a dose of 25 mg/kg (the value is obtained by comparison between the non-injected paw volumes of the arthritic and control).
Rattus norvegicus [9] = experiment: Inhibitory effect on adjuvant arthritis in rats at a dose of 10 mg/kg (the value is obtained by comparison between the non-injected paw volumes of the arthritic and control)
Rattus norvegicus [10] = experiment: Inhibitory effect on adjuvant arthritis in rats at a dose of 25.0 mg/kg (the value is obtained by comparison between the non-injected paw volumes of the arthritic and control).; conditions: for inhibition in vivo at 25 mg/kg: Rattus norvegicus
Mus musculus [11] = experiment: Inhibitory effect on vascular permeability in mice [inhibitory rate of compound 50 mg/kg administered perorally]/[inhibitory rate of diclofenac-Na 25 mg/kg administered perorally]
Rattus norvegicus [12] = experiment: Inhibitory effect on adjuvant arthritis in rats at a dose of 12.5 mg/kg (the value is obtained by comparison between the non-injected paw volumes of the arthritic and control)
Rattus norvegicus [13] = organism: Rattus norvegicus; experiment: The suppression of calcium release from bone stimulated with IL1-beta in vitro at a concentration of 10.0 ug/mL expressed as percent inhibition of bone resorption
Rattus norvegicus [14] = organism: Rattus norvegicus; experiment: The suppression of calcium release from bone stimulated with IL1-beta in vitro at a concentration of 0.4 ug/mL expressed as percent inhibition of bone resorption
Rattus norvegicus [15] = organism: Rattus norvegicus; experiment: The suppression of calcium release from bone stimulated with IL1-beta in vitro at a concentration of 2.0 ug/mL expressed as percent inhibition of bone resorption.
Rattus norvegicus [16] = organism: Rattus norvegicus; experiment: The suppression of calcium release from bone stimulated with PTH in vitro at a concentration of 2.0 ug/mL expressed as percent inhibition of bone resorption.
Rattus norvegicus [17] = organism: Rattus norvegicus; experiment: The suppression of calcium release from bone stimulated with PTH in vitro at a concentration of 10.0 ug/mL expressed as percent inhibition of bone resorption
Rattus norvegicus [18] = experiment: Inhibitory effect on adjuvant arthritis in rats at a dose of 6.3 mg/kg (the value is obtained by comparison between the non-injected paw volumes of the arthritic and control).
Rattus norvegicus [19] = organism: Rattus norvegicus; experiment: The suppression of calcium release from bone stimulated with PTH in vitro at a concentration of 0.4 ug/mL expressed as percent inhibition of bone resorption.
Rattus norvegicus [20] = experiment: Bone damage score on day 27(the result of radiolgic analysis of non-injected paws on day 27) the bone destruction advances in the articular of adjuvant arthritic rat at a dose of 25 mg/kg
Rattus norvegicus [21] = experiment: Bone damage score on day 27(the result of radiolgic analysis of non-injected paws on day 27) the bone destruction advances in the articular of adjuvant arthritic rat at a dose of 0.5 mg/kg

In the case of `CC1CCc2cc(CC(=O)O)cc(Cl)c2N1` (stereo not given), the inhibition ratio vs diclofenac (Mus musculus [1]) is reported as 1.94, the Inhibition (Ovis aries) is reported as 60% and the inhibition in vivo at 12.5 mg/kg (Rattus norvegicus [2]) is reported as 42%. It also gave an inhibition in vivo at 25 mg/kg (Rattus norvegicus [3]) of 56%.
`O=C(O)Cc1cc(Cl)c2c(c1)CCC(c1ccccc1F)N2` (stereo not given) was tested, and the inhibition in vivo at 50 mg/kg (Rattus norvegicus [4]) was 52%, the inhibition ratio vs diclofenac (Mus musculus [1]) was 2.09 and the inhibition in vivo at 100 mg/kg (Rattus norvegicus [5]) was 64%. For the same compound, the inhibition in vivo at 25 mg/kg (Rattus norvegicus [6]) was 19%.
`CCCC1CCc2cc(CC(=O)O)cc(Cl)c2N1` (stereo not given) gave an inhibition in vivo at 12.5 mg/kg (Rattus norvegicus [7]) of 32%, an inhibition ratio vs diclofenac (Mus musculus [1]) of 1.59 and an inhibition in vivo at 25 mg/kg (Rattus norvegicus [8]) of 47%.
Compound `O=C(O)Cc1cc(Cl)c2c(c1)CCCN2` has an inhibition in vivo at 50 mg/kg (Rattus norvegicus [4]) of 20%, an inhibition ratio vs diclofenac (Mus musculus [1]) of 1.44 and an inhibition in vivo at 100 mg/kg (Rattus norvegicus [5]) of 55%. It also gave an inhibition in vivo at 10 mg/kg (Rattus norvegicus [9]) of 27%.
For `CC1(C)CCc2cc(CC(=O)O)cc(Cl)c2N1`, the inhibition ratio vs diclofenac (Mus musculus [1]) was 1.22.
`O=C(O)Cc1cc(Cl)c2c(c1)CCC(C(=O)O)N2` (stereo not given) gave an inhibition ratio vs diclofenac (Mus musculus [1]) of 0.
`O=C(O)Cc1ccc2c(c1)CCCN2` showed an inhibition ratio vs diclofenac (Mus musculus [1]) of 1.06.
`CCC1CCc2cc(CC(=O)O)cc(Cl)c2N1` (stereo not given) was tested, and the inhibition ratio vs diclofenac (Mus musculus [1]) was 1.54.
`O=C(O)Cc1cc(Cl)c2c(c1)CCC(C(F)(F)F)N2` (stereo not given) was tested, and the inhibition in vivo at 12.5 mg/kg (Rattus norvegicus [7]) was 36%, the Inhibition (Rattus norvegicus [10]; 25 mg/kg) was 46% and the inhibition in vivo at 25 mg/kg (Rattus norvegicus [10]) was 45%. It also gave an inhibition ratio vs diclofenac (Mus musculus [1]) of 1.48, an Inhibition (Ovis aries) of 71% and an inhibition ratio vs diclofenac (Mus musculus [11]) of 0.99.
Compound `CC(C)C1CCc2cc(CC(=O)O)cc(Cl)c2N1` (stereo not given) has an inhibition ratio vs diclofenac (Mus musculus [1]) of 1.1.
Compound `O=C(O)Cc1cc(Cl)c2c(c1)CCC(c1ccccc1)N2` (stereo not given) has an inhibition ratio vs diclofenac (Mus musculus [1]) of 1.63.
Work on `COc1ccc(C2CCc3cc(CC(=O)O)cc(Cl)c3N2)cc1` (stereo not given) yielded an inhibition ratio vs diclofenac (Mus musculus [1]) of 0.62.
With `O=C(O)Cc1cc(Cl)c2c(c1)CC[C@H](C(F)(F)F)N2` the inhibition in vivo at 25 mg/kg (Rattus norvegicus [10]) was 20%, the inhibition ratio vs diclofenac (Mus musculus [1]) was 1.5 and the inhibition in vivo at 12.5 mg/kg (Rattus norvegicus [12]) was 3%. For the same compound, the inhibition ratio vs diclofenac (Mus musculus [11]) was 0.43.
`O=C(O)Cc1cc(Cl)c2c(c1)CC[C@@H](C(F)(F)F)N2` gave an Inhibition (Rattus norvegicus [13]) of 97%, an inhibition in vivo at 12.5 mg/kg (Rattus norvegicus [7]) of 34% and an inhibition in vivo at 25 mg/kg (Rattus norvegicus [10]) of 60%. It also gave an inhibition ratio vs diclofenac (Mus musculus [1]) of 1.62, an Inhibition (Rattus norvegicus [14]) of 24% and an Inhibition (Rattus norvegicus [15]) of 78%. The Inhibition (Rattus norvegicus [16]) was 61%, the Inhibition (Rattus norvegicus [17]) was 94% and the inhibition in vivo at 6.3 mg/kg (Rattus norvegicus [18]) was 25%. It also gave an Inhibition (Rattus norvegicus [19]) of 41%, an inhibition ratio vs diclofenac (Mus musculus [11]) of 1.28 and a Bone damage score (Rattus norvegicus [20]) of 2.5.
Compound `O=C([O-])Cc1ccccc1Nc1c(Cl)cccc1Cl.[Na+]` [DICLOFENAC SODIUM] has a Bone damage score (Rattus norvegicus [21]) of 4.3.
